US11266714B2, “Chloride salt of TAT-NR2B9C” (NoNO Inc., priority 2014, dated 2022)
No end group written: not given here.

Assay: Solubility study of TAT-NR2B9c, visual analysis
Format: physicochemical
Settings: pH 6.5, 35, 50, 75 and 100 mg/mL, t=0 and t=24 hours
Experimental: Due to the relatively low Tg temperatures that would likely require a longer lyophilization cycle to dry, we looked at a wider range of standard bulking agents and looked to reduce the fill volume into the container closure system so that there would be a reduced volume of liquid to lyophilize. […] Samples were visually analyzed at 35, 50, 75 and 100 mg/mL. All solutions were clear at t=0 and t=24 hours. […] A wide range of quantities may be required in a vial, but 270 mg would provide a […] dose for a 100 kg patient. Assuming the target reconstitution concentration for patient administration is still 20 mg/mL (but can be from 1 mg/ml to 100 mg/ml), then a 20-mL lyophilization vial containing 270 mg of TAT-NR2B9c can be used with a reconstitution volume of 13.5 mL. Therefore, optimal volumes of liquid for lyophilization of TAT-NR2B9c in the vial would be between 2.5 mL and 10 mL.

Sequence: YGRKKRRQRRRKLSSIESDV [TAT-NR2B9c]
- solubility, visual analysis (in Histidine+Trehalose): clear
- solubility, visual analysis (in Histidine): clear
